From the NIST ThermoML archive (doi:10.1016/j.fluid.2014.09.007) come the findings set out here.

Data set [1] in a line: Solid-liquid equilibrium temperature. As to conditions: Crystal, visual observation.
A short description of data set [2]: Molar enthalpy of transition or fusion. As to conditions: Crystal; DSC.
For data set [3] the following is noted: Crystal.

Numbers after ± are expanded uncertainties.

As for `CCCCCCCCCCCC(=O)OCC` [ethyl dodecanoate], the Solid-liquid equilibrium temperature is recorded as 272.3 ± 0.4 K in data set [1] (100 kPa); 276.4 ± 0.5 K in data set [1] (20000 kPa); 280.3 ± 0.5 K in data set [1] (40000 kPa); 284 ± 0.5 K in data set [1] (60000 kPa); 287.4 ± 0.5 K in data set [1] (80000 kPa). In data set [2], the “Molar enthalpy of transition or fusion” value is 9.18 ± 0.311 kcal/mol. In addition, the values for the Normal melting temperature in data set [3] (DTA) and in data set [3] (visual observation) were -0.9 ± 0.5 °C and -0.8 ± 0.5 °C, respectively.
`CCCCCCCCCCCCCC(=O)OCC` [ethyl tetradecanoate]: the Solid-liquid equilibrium temperature in data set [1] (100 kPa) was 285.8 ± 0.4 K; in data set [1] (20000 kPa) it was 289.9 ± 0.5 K; in data set [1] (40000 kPa) it was 294.1 ± 0.5 K; in data set [1] (60000 kPa), 298 ± 0.5 K; in data set [1] (80000 kPa) it was 301.9 ± 0.5 K. The “Molar enthalpy of transition or fusion” value in data set [2] was 11.3 ± 0.335 kcal/mol. In addition, the Normal melting temperature came to 13.2 ± 0.5 °C in data set [3] (DTA) and 12.7 ± 0.5 °C in data set [3] (visual observation).
Regarding `CCCCCCCCCCCCCCCC(=O)OCC` [ethyl hexadecanoate], the Solid-liquid equilibrium temperature in data set [1] (100 kPa) was 297.6 ± 0.4 K; in data set [1] (20000 kPa) it was 302 ± 0.5 K; in data set [1] (40000 kPa), 306.4 ± 0.5 K; in data set [1] (60000 kPa) it was 310.3 ± 0.5 K; in data set [1] (80000 kPa), 314.3 ± 0.5 K. For the same compound, in data set [2], the “Molar enthalpy of transition or fusion” value is 13.3 ± 0.359 kcal/mol. Besides, the Normal melting temperature in data set [3] (DTA) was found to be 24.2 ± 0.5 °C; in data set [3] (visual observation), 24.5 ± 0.5 °C.
